Where two headings read alike, the source gives them in different places.
Key:
[1] = cited from earlier work
hyperlipidemia rats [2] = assay: Liver tissue homogenate biochemical indicators in high-fat diet hyperlipidemia rats; type: in vivo, SD rats; conditions: liver tissue, 20 mg/(kg d) by gastric gavage, 4 weeks, x ± s, n = 9
From the text: (§1) Animals: 54 SPF-grade SD rats, weighing 120±10 g, provided by Laboratory Animal Business Department, Shanghai Family Planning Research Institute, China, Animal license number: SCXK(Shanghai)2018-0006.
(§2) Drug to be tested: Nuciferine purchased from Shanghai Aladdin Biochemical Technology Co., Ltd., China, and its derivatives (purity >99%) that were synthesized in the laboratory by the methods of Examples 2-7.
(§3) Other reagents: AST, ALT, TC, TG, NEFA, Bun, Cr, CAT, GSH-Px, GSH, MDA test kits, purchased from Nanjing Jiancheng Bioengineering Institute, China; HL and PL test kits, purchased from Jianglai Biotechnology Co., Ltd., China; experimental reagents such as anhydrous ethanol, xylene, isopropanol neutral gum, purchased from Sinopharm Chemical Reagent Co., Ltd., China; HE dye solution, DAB color development agent, and oil red O dye solution, purchased from KeyGEN Biotechnology Co., Ltd, China; Antibodies IL-6 and TNF-α, purchased from Abcam Limited.
(§4) Modeling scheme: 54 adult rats of 120±10 g were selected and fed adaptively for three days. They were then randomly divided to 6 groups, 9 animals for each group. They were blank control group, model group, positive control group, nuciferine group, and nuciferine structural modification group. The blank control group was fed with normal diet. […] The feeding and modeling time was 5 weeks. Within 4 weeks after modeling, continuous administration was performed: the blank control group and model group were given 0.2 mL of distilled water by gastric gavage; the positive control group was administrated 20 mg/(kg d) of simvastatin; while the treatment group was administrated 20 mg/(kg d) of nuciferine or 20 mg/(kg d) of a derivative of nuciferine (compounds 6a-6f).
(§5) Liver tissue sample collection: the rats were killed by dislocation, and the liver was taken out immediately after death, which was observed by naked eye to find out whether there was abnormal color and lesions, and was then rinsed with ice normal saline. The left lobe of the liver was quickly cut into small pieces and fixed in 10% formaldehyde overnight for sectioning. The tissue of the right lobe of the liver was quickly wrapped in tin box and stored at −80° C. for later use.
Preparation of 10% liver homogenate: the liver wrapped in tin box and stored in the ultra-low temperature freezer at −80° C. was taken out, and quickly placed on an ice box. 0.2 g of liver tissue was accurately taken, and ice normal saline with a volume 9 times that of the liver issue was added thereto. 10% tissue homogenate was formed by grounding and mixing, and then centrifuged at 3000 r/min and 4° C. for 10 min. The supernatant was collected for later use.
(§6) Biochemical indicator determination: indicators AST, ALT, TC, TG, NEFA, Bun, Cr, CAT, GSH-Px, GSH, MDA, HL, PL were determined according to the instructions of the kits.

hyperlipidemia rats [3] = assay: Serum biochemical indicators in high-fat diet hyperlipidemia rats; type: in vivo, SD rats; conditions: serum, 20 mg/(kg d) by gastric gavage, 4 weeks; for ALT (U/L) / AST (U/L) / Bun / Cr: x ± s, n = 9
From the text: as §1, §2, §3, §4
Blood sample collection: 24 h after the last gastric gavage administration, eyeballs were taken out and blood was drawn. Whole blood was collected in an EP tube, and centrifuged at 3000 r/min and 4° C. for 10 min, and the supernatant was collected and stored at −20° C. for blood biochemical indicator test.
as §6

hyperlipidemia rats [4] = assay: Liver and kidney indexes in high-fat diet hyperlipidemia rats; type: in vivo, SD rats; conditions: 20 mg/(kg d) by gastric gavage, 4 weeks, x ± s, n = 9
From the text: as §1
Modeling scheme: 54 adult rats of 120±10 g were selected and fed adaptively for three days. They were then randomly divided to 6 groups, 9 animals for each group. They were blank control group, model group, positive control group, nuciferine group, and nuciferine structural modification group. The blank control group was fed with normal diet. […] The feeding and modeling time was 5 weeks.
as §5

[5] = TCMSP database, screening threshold OB ≥30%

## Oc1cc(O)c2c(c1)O[C@@H](c1cc(O)c(O)c(O)c1)[C@@H](O)[C@@H]2O [leucodelphinidin]
[1]; [5]
  OB/% (oral bioavailability): 30.02%

## CN1CCc2cc3c(c4c2C1Cc1ccccc1-4)OCO3 (centres unmarked) [Remerin]
[1]; [5]
  OB/% (oral bioavailability): 40.75%

## COc1cc2c(cc1O)C(Cc1ccc(O)cc1)NCC2 (centres unmarked) [Machiline]
[1]; [5]
  OB/% (oral bioavailability): 79.64%

## COc1cc2c(cc1OC)C(Cc1ccc(O)cc1)N(C)CC2 (centres unmarked) [Armepavine]
[1]; [5]
  OB/% (oral bioavailability): 69.31%

## COc1cc2c3c(c1OC)-c1ccccc1CC3N(C(=O)c1ccc(C)cc1)CC2 (centres unmarked) [Compound 6c, p-Methylbenzoylnuciferine]
Hyperlipidemia rats [2]
  CAT (U/mgprot): 27.43 ± 3.14 U/mgprot
  GSH (μmol/gprot): 374.63 ± 137.14 μmol/gprot
  GSH-Px (U/mgprot): 567.63 ± 51.57 U/mgprot
  HL (U/mgprot): 0.44 ± 0.78 U/mgprot
  LPL (U/mgprot): 0.50 ± 0.07 U/mgprot
  MDA (nmol/mgprot): 0.94 ± 0.38 nmol/mgprot
  NEFA (μmol/g prot): 107.69 ± 6.44 μmol/g prot
  TG (mmol/g prot): 0.10 ± 0.02 mmol/g prot
Hyperlipidemia rats [3]
  LDL-C: 0.54 ± 0.08 mmol/L
  TC: 1.93 ± 0.16 mmol/L
  TG: 0.56 ± 0.07 mmol/L
  ALT (U/L): 16.44 ± 8.69 U/L
  AST (U/L): 7.86 ± 2.24 U/L
  Bun: 3.45 ± 0.51 mmol/L
  Cr: 51.39 ± 5.83 µmol/L
Hyperlipidemia rats [4]
  Kidney index (%): 0.68 ± 0.03 %
  Liver index (%): 4.58 ± 0.26 %

## COc1cc(-c2oc3cc(O)cc(O)c3c(=O)c2O)ccc1O [isorhamnetin]
[1]; [5]
  OB/% (oral bioavailability): 49.6%

## COc1cc2c3c(c1OC)-c1ccccc1CC3N(C(C)=O)CC2 (centres unmarked) [Compound 6f, Acetylnuciferine]
Hyperlipidemia rats [2]
  CAT (U/mgprot): 27.42 ± 2.82 U/mgprot
  GSH (μmol/gprot): 361.04 ± 43.65 μmol/gprot
  GSH-Px (U/mgprot): 560.90 ± 62.45 U/mgprot
  HL (U/mgprot): 0.56 ± 0.06 U/mgprot
  LPL (U/mgprot): 0.26 ± 0.08 U/mgprot
  MDA (nmol/mgprot): 0.98 ± 0.56 nmol/mgprot
  NEFA (μmol/g prot): 106.32 ± 22.95 μmol/g prot
  TG (mmol/g prot): 0.13 ± 0.02 mmol/g prot
Hyperlipidemia rats [3]
  LDL-C: 0.69 ± 0.16 mmol/L
  TC: 2.02 ± 0.16 mmol/L
  TG: 0.58 ± 0.07 mmol/L
  ALT (U/L): 16.73 ± 9.74 U/L
  AST (U/L): 7.74 ± 2.22 U/L
  Bun: 3.62 ± 0.15 mmol/L
  Cr: 52.82 ± 4.36 µmol/L
Hyperlipidemia rats [4]
  Kidney index (%): 0.68 ± 0.03 %
  Liver index (%): 4.58 ± 0.25 %

## o-Nornuciferine
[1]; [5]
  OB/% (oral bioavailability): 33.52%

## Oc1cc(O)c2c(c1)O[C@@H](c1ccc(O)c(O)c1)[C@@H](O)C2 [ent-Epicatechin]
[1]; po
  OB/% (oral bioavailability): 48.96%
